Assay results published in US6552066B1, “Protein tyrosine kinase inhibitors for treating osteoarthritis” (priority 1995, dated 2003).
Like-named read-outs stand apart in the source and are kept apart here.

Assays:
[1] = test system: IL-1 induced release of 35S-labelled proteoglycans from chondrocytes; test: Chondrocyte cell culture matrix breakdown assay (IL-1 induced 35S release); type: cell-based, calf (bovine); details: for inhibition at 10 µM / inhibition at 50 µM: Bos taurus, Chondrocyte
Method: A cell culture assay was used to measure the ability of the test compounds to slow the degradation of the extracellular matrix by a metalloproteinase. This assay measured the amount ^35S released from chondrocytes grown in a media with ^35S labeled sodium sulfate. The cell culture assay was carried out as follows:
Two or three 1 to 3 week old calf joints were obtained from an abattoir. The proximal end of the shank was about 4-5′ long to facilitate immobilization in the holder. The joint was kept cool and transported on ice. The exterior of the intact joints was washed well with a suitable anti-microbial soap, rinsed clean with warm water, rinsed in betadine and then finally rinsed with 70% ethanol. Up to this point all steps were done in a manner to ensure that the joint was kept as clean as possible. All subsequent steps were performed in a sterile field (i.e., in a Edgeguard laminar flow tissue culture hood). The joint was immobilized and the synovial fluid was aspirated with a needle and syringe. The joint was then cut open to expose the articular cartilage using a #21 scalpel. Using locking hemostats, forceps and a #15 scalpel, the cartilage was excised in full thickness pieces. Care was taken not to cut too deep into the subchondral bone to prevent bleeding. The cartilage pieces were placed into a 50 mL centrifuge tube containing 25 mL of Delbecco's phosphate buffered saline (D-PBS) supplemented with 1% antibiotic solution (penicillin, streptomycin and fungizone; GIBCO/BRL). The slices from each joint were then placed into separate 50 mL centrifuge tubes. The D-PBS was decanted and replaced with 25 mL of fresh D-PBS supplemented with antibiotics and subsequently agitated gently.
The cartilage pieces were transferred to a fresh 50 mL centrifuge tube and rinsed once more with 25 mL of D-PBS minus antibiotics. An enzymatic digestion solution containing 1 mg/mL of hyaluronidase in serum-free 1:1 DMEM/Ham's F-12 (DMEM/F12) was prepared. This solution was filter sterilized with 0.22 mm Milex-GV filter and kept on ice until ready to use. The cartilage pieces were digested with approximately 5 mL of hyaluronidase solution per joint for 2×15 minutes at 37° C. in the 50 mL centrifuge tube with gentle agitation at the 15 minute mark. This procedure removed residual hyaluronic acid from the surface of the chips. The enzymatic digestion solution was then aspirated and the cartilage pieces were rinsed with 25 mL of D-PBS.
A second enzymatic digestion solution containing 2.5 mg trypsin and 2 mg collagenase P per mL serum-free DMEM/F12 was prepared. This solution was also filter sterilized with a 0.22 mm Millex-GV filter and kept on ice until ready to use. The cartilage pieces were digested with approximately 5 mL of trypsin: collagenase solution per joint for 2×15 minutes at 37° C. in the 50 mL centrifuge tube with gentle agitation at the 15 minute mark. This procedure removed the synovial fibroblasts and any adherent connective tissue from the surface of the chips. The enzymatic digestion solution was then carefully removed and saved and the cartilage pieces were rinsed with 25 mL of D-PBS.
A third enzymatic solution containing 2 mgs of collagenase P (BMB) per mL serum-free DMEM/F12 was prepared. This solution was filter sterilized with a 0.22 mm Millex-GV filter and kept on ice until ready to use. The pre-digested cartilage pieces were finally digested with approximately 20 mL of enzymatic digestion solution per joint for 5-6 hours at 37° C. in a Bellco stirring digestion flask, at which point the cartilage was fully digested away.
The enzymes in the synovial fibroblast and chondrocyte digest were neutralized by addition of an equal volume of DMEM/F12 supplemented with 5% fetal bovine serum. Fibroblasts were plated in DMEM at a cellular density of 6.6×10^3 cells per cm^2. […]

[2] = test system: IL-1-induced aggrecan degradation; test: Aggrecan degradation in IL-1-stimulated chondrocytes, 2-B-6 antibody immunoblot; type: cell-based, bovine; details: for intensity of staining (total amount of PG fragments), 2-B-6: relative to PKA, PKC and calmodulin-dependent kinase inhibitor samples
Method: Primary bovine articular chondrocytes from calf adio-carpal joints were isolated and cultured as above in Example 1, up to and including the addition of the following protein kinase inhibitors: 1) Protein kinase A (PKA) inhibitors; 0.5 μM H88 (Seikagaku Corp.), 0.5 μM H89 (Seikagaku Corp.); 2) Protein kinase C (PKC) inhibitors; 0.5 μM Calphostin C (Calbiochem), 1.0 μM Chelerythrine (Calbiochem); 3) CA^2+/Calmodulin Kinase II inhibitor; 5.0 μM KN93 (Seikagaku Corp.); 4) Protein tyrosine kinase (PTK) inhibitors; 50 μM Genistein (Calbiochem), 10 μM Herbimycin A (Calbiochem). After the 24 hour IL-1α incubation, the media of each sample was measured, and collected on ice in the presence of the protease inhibitors EGTA (5 mM), Pefaloc (1 mM), pepstatin (1 μg/ml), and NEM (5 mM). Media were concentrated approximately 40 fold using a Centriprep-10 ultrafiltration device (Amicon).
Proteoglycans contained within the media were deglycosylated by incubations with chondroitinase ABC, keratinase, and keratinase II following the procedure of Sandy et al. J Biol Chem (1991) 266:8683-8685 and Sandy et al. J. Clin Invest (1992) 89:1512-1516. Samples of deglycosylated media were subjected to 4-15% gradient SDS-PAGE and transferred to nitrocellulose membranes (2 ml-worth and 6 ml-worth of media were used for 2-B-6 and BC-3 immunoblotting, respectively.) The membranes were blocked with 1% nonfat dry milk and 1% BSA, and then incubated in either the BC-3 or 2-B-6 primary monoclonal antibody for 1 hour. The 2-B-6 antibody detects chondroitin sulfate stubs on chondroitinase-treated proteoglycans (both intact and degradation products. BC-3 antibody detects “ARGSV . . . ,” the new N-terminus (“neoepitope”) resulting from cleavage of aggrecan interglobular domain at Glu^373/ALA^374 by aggrecanase. It is of note to mention that the BC-3 and 2-B-6 antibodies were of low sensitivity. Following 3 washes, membranes were incubated in either alkaline phosphatase-conjugated goat anti-mouse (for the 2-B-6 blot) or biotinylated goat anti-mouse (for the BC-3 blot); followed by alkaline phosphatase-conjugated streptavidin/biotin complex). After washing 3 times, immunoreactive proteins were detected using NBT/BCIP (Sigma) colorimetric substrate.
The 2-B-6 antibody detected intact aggrecan (the uppermost band) and several aggrecan degradation products, along with decorin and biglycan (50K doublet), in the IL-1-treated media samples. […] The bands in the IL-1 sample that are seen at 230K, 200K, 130K and 100K have been previously identified by sequence analysis to result from IL-1-induced “aggrecanase” cleavage.
A repeat of the Western immunoblotting experiment using 2-B-6 antibodies was performed. Furthermore, additional inhibitors from four enzyme families were examined: 1) Protein tyrosine kinase (PTK) inhibitors; 1 μM Tryphostin AG 1296 (Calbiochem), 50 μM Tyrphostin A25 (AG 82) (Calbiochem), 50 μM Tyrphostin AG 126 (Calbiochem), 50 μM Tyrphostin B56 (AG 556) (Calbiochem), 20 μM DAPH (Calbiochem); 2) Guanylate cyclase inhibitor; 10 μM LY-83583 (Calbiochem); 3) Casein kinase I inhibitor; 20 μM CKI-7 (Seikagaku Corp.); and 4) Protein kinase G (PKG) and PKA inhibitor; 5.0 μM H89.

N#CC(C#N)=Cc1ccc([N+](=O)[O-])c(O)c1 [Tyrphostin AG 126]
percent inhibition of IL-1 induced 35S release ([1]; 50 μM, repeated assay): no inhibition | inhibition of IL-1-induced aggrecan degradation, 2-B-6 ([2]; 50 μM, repeat experiment): no inhibitory effect

N#CC(C#N)=Cc1cc(O)c(O)c(O)c1 [Tyrphostin AG 82]
percent inhibition of IL-1 induced 35S release ([1]; 50 μM, repeated assay): 40% | inhibition of IL-1-induced aggrecan degradation, 2-B-6 ([2]; 50 μM, repeat experiment): moderate inhibition

N#C/C(=C\c1ccc(O)c(O)c1)C(=O)NCCCCc1ccccc1 [Tyrphostin AG 556]
percent inhibition of IL-1 induced 35S release ([1]; 50 μM, repeated assay): 100% | inhibition of IL-1-induced aggrecan degradation, 2-B-6 ([2]; 50 μM, repeat experiment): 100%

O=C1NC(=O)c2cc(Nc3ccccc3)c(Nc3ccccc3)cc21 [DAPH, 4,5-dianilinophthalimide]
percent inhibition of IL-1 induced 35S release ([1]; 2 μM, repeated assay): no inhibition | percent inhibition of IL-1 induced 35S release ([1]; 20 μM, repeated assay): no inhibition | inhibition of IL-1-induced aggrecan degradation, 2-B-6 ([2]; 20 μM, repeat experiment): moderately strong inhibition

CO[C@H]1[C@@H](OC)C[C@H](C)[C@@H](OC)C2=CC(=O)C=C(NC(=O)/C(C)=C/C=C\[C@H](OC)[C@@H](OC(N)=O)/C(C)=C/[C@@H]1C)C2=O [Herbimycin A]
inhibition at 10 µM ([1]; first experiment, 1 ng/ml rhIL-1α, read-out: inhibitory effect on IL-1 induced release of 35S-labelled proteoglycans): 75 to 100% | inhibition at 10 µM ([1]; repeated assay, read-out: percent inhibition of IL-1 induced 35S release): 89% | level of the 230K aggrecan degradation product, 2-B-6 ([2]; 10 μM): significantly reduce | levels of the uppermost band (intact aggrecan), 2-B-6 ([2]; 10 μM): increased | intensity of staining (total amount of PG fragments), 2-B-6 ([2]; 10 μM): reduced | inhibition at 10 µM ([2]; Bos taurus, Chondrocyte, 10 μM, repeat experiment): ~100%

O=c1c(-c2ccc(O)cc2)coc2cc(O)cc(O)c12 [Genistein]
inhibition at 50 µM ([1]; 50 μM, first experiment, 1 ng/ml rhIL-1α, read-out: inhibitory effect on IL-1 induced release of 35S-labelled proteoglycans): 75 to 100% | inhibition at 50 µM ([1]; 50 μM, repeated assay, read-out: percent inhibition of IL-1 induced 35S release): 58% | level of the 230K aggrecan degradation product, 2-B-6 ([2]; 50 μM): significantly reduce | levels of the uppermost band (intact aggrecan), 2-B-6 ([2]; 50 μM): increased | intensity of staining (total amount of PG fragments), 2-B-6 ([2]; 50 μM): reduced | inhibition of IL-1-induced aggrecan degradation, 2-B-6 ([2]; 50 μM, repeat experiment): partial inhibition
